Assay results: patent US8435549B2, “Halogen alkoxy spirocyclic tetramic and tetronic acid derivatives” (Bayer Cropscience AG, priority 2007, dated 2013)

Columns and labels:
[1] = test system: cotton aphid (Aphis gossypii); assay: Enhancement of activity by ammonium/phosphonium salts, Aphis gossypii test; assay type: in vivo; conditions: Aphis gossypii on cotton, active compound 4 ppm
Procedure: (§1) To produce a suitable preparation of active compound, 1 part by weight of active compound is mixed with the stated amounts of solvent and emulsifier, and the concentrate is diluted with emulsifier-containing water to the desired concentration. For application with ammonium or phosphonium salts, these are added to the spray liquor in a concentration of 1000 ppm.
Cotton plants (Gossypium hirsutum) which are heavily infested by the cotton aphid (Aphis gossypii) are treated by spraying to runoff point with the active compound preparation of the desired concentration.
After the desired period of time, the kill in % is determined. 100% means that all the aphids have been killed; 0% means that none of the aphids have been killed.

[2] = test system: green peach aphid (Myzus persicae); assay: Enhancement of activity by ammonium/phosphonium salts in combination with penetrants, Myzus persicae test; assay type: in vivo
Procedure: as §1, with “with” for “with emulsifier-containing”, “salts and penetrants (rapeseed oil methyl ester 500 EW)” for “salts,”, “in each case in” for “in”
Bell pepper plants (Capsicum annuum) which are heavily infested by the green peach aphid (Myzus persicae) are treated by spraying to runoff point with the active compound preparation of the desired concentration. After the desired period of time, the kill in % is determined. 100% means that all animals have been killed; 0% means that none of the animals have been killed.

SMILES: Cc1cc(Cl)cc(C)c1C1=C(O)[C@]2(CC[C@H](OCC(F)(F)F)CC2)NC1=O [Example I-1-a-1]
- Kill rate/% after 6 days ([1]; +AS (1000 ppm)): 95%
- Kill rate/% after 6 days ([1]; without AS): 25%
- Kill rate/% after 6 days ([2]; 0.8 ppm, +AS (1000 ppm)): 0%
- Kill rate/% after 6 days ([2]; 0.8 ppm, +RME (1000 ppm)): 0%
- Kill rate/% after 6 days ([2]; 0.8 ppm, +RME + AS (1000 ppm each)): 95%
- Kill rate/% after 6 days ([2]; 0.8 ppm, no additive): 0%
- Kill rate/% after 6 days ([2]; 4 ppm, +AS (1000 ppm)): 90%
- Kill rate/% after 6 days ([2]; 4 ppm, +RME (1000 ppm)): 99%
- Kill rate/% after 6 days ([2]; 4 ppm, +RME + AS (1000 ppm each)): 100%
- Kill rate/% after 6 days ([2]; 4 ppm, no additive): 95%
